Measured values from patent publication US10781224B2, “Bis(oxymethyl)phosphinic acid and biogenic metal salts thereof as regulators of plant growth and development” (priority 2016, dated 2020).
Several values for one entry are separate records, joined by “and”; a condition that tells them apart may be missing. Equal values may be shown once.

Tests used:
Type in all cases: in vivo
[1] = system: winter wheat (Vershin variety); assay: Winter wheat seed treatment with BHMPA salts: germination energy and germination rate
In short: (§1)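 Corn, winter wheat and rice seeds (50 per dish, on filter paper) were soaked for 1 h in BHMPA or its metal salts at 1·10^−6-1·10^−12%, with water as control. Germination energy was read on day 4 and germination rate on day 8 for wheat and day 7 for rice and corn, following GOST 12038-84, as the mean of four replicates.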

[2] = system: corn (Krasnodar 385 MV variety); assay: Corn seed treatment with BHMPA salts: germinating power
In short: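 Seeds (50 per Petri dish on two layers of filter paper) soaked 1 h in BHMPA or its Ca, Mg, Na, Co, Mn, Cu or Zn salts at 1·10^−6-1·10^−12%, with water controls. Germination energy read on day 4, germination on day 8 (wheat) or day 7 (rice, corn), as % means of four replicates. Germinating power taken as root and sprout length plus wet and dry mass per 100 seedlings.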

[3] = system: rice (Diamant variety); assay: Rice seed treatment with BHMPA salts: germination energy and germination rate; conditions: for Germination energy / Germination rate: rice
In short: as §1

[4] = winter wheat Vershin, 1·10^−6% solution
[5] = winter wheat Vershin, 1·10^−7% solution
[6] = winter wheat Vershin, 1·10^−8% solution
[7] = winter wheat Vershin, 1·10^−9% solution
[8] = winter wheat Vershin, 1·10^−10% solution
[9] = winter wheat Vershin, 1·10^−11% solution
[10] = winter wheat Vershin, 1·10^−12% solution
[11] = winter wheat, comparative study vs Melaphen, 1·10^−9% solution
[12] = corn seeds, solution concentration 1 · 10^−6%, copper salt of BHMPA
[13] = corn seeds, solution concentration 1 · 10^−7%, copper salt of BHMPA
[14] = corn seeds, solution concentration 1 · 10^−8%, copper salt of BHMPA
[15] = corn seeds, solution concentration 1 · 10^−9%, copper salt of BHMPA
[16] = corn seeds, solution concentration 1 · 10^−10%, copper salt of BHMPA
[17] = corn seeds, solution concentration 1 · 10^−11%, copper salt of BHMPA
[18] = corn seeds, solution concentration 1 · 10^−12%, copper salt of BHMPA
[19] = rice seed treatment, solution 1 · 10^−10%
[20] = comparative study vs Melaphen, 1·10^−8% solution

## Copper BHMPA Salt [Cu-salt]
[1]; [4]
  Germination energy: 81.0%
  Germination rate: 84.0%
[1]; [5]
  Germination energy: 87.3%
  Germination rate: 90.0%
[1]; [6]
  Germination energy: 91.4%
  Germination rate: 96.0%
[1]; [7]
  Germination energy: 94.9%
  Germination rate: 98.0% and 94.3%
[1]; winter wheat Vershin, 1·10^−9% solution, listed as Cu
  Germination rate: 98.0%
[1]; [8]
  Germination energy: 92.1%
  Germination rate: 96.7%
[1]; [9]
  Germination energy: 91.7%
  Germination rate: 94.0%
[1]; [10]
  Germination energy: 87.5%
  Germination rate: 90.0%
[1]; [11]
  Germination energy: 94.7%
  Germination rate: 98.7%
[2]; corn
  optimum concentration for treating corn seeds before sowing: 1·10^−8%
[2]; [12]
  Length, root: 5.2 cm
  Length, root, + % to control: 8%
  Length, sprout: 4.2 cm
  Length, sprout, + % to control: 20%
  Mass, dry, root: 1.27 g/100 plantlings
  Mass, dry, root, + % to control: 7%
  Mass, dry, sprout: 1.01 g/100 plantlings
  Mass, dry, sprout, + % to control: 2%
  Mass, wet, root: 8.99 g/100 plantlings
  Mass, wet, root, + % to control: 11%
  Mass, wet, sprout: 7.21 g/100 plantlings
  Mass, wet, sprout, + % to control: 15%
[2]; [13]
  Length, root: 5.4 cm
  Length, root, + % to control: 12.5%
  Length, sprout: 4.6 cm
  Length, sprout, + % to control: 31%
  Mass, dry, root: 1.38 g/100 plantlings
  Mass, dry, root, + % to control: 16%
  Mass, dry, sprout: 1.09 g/100 plantlings
  Mass, dry, sprout, + % to control: 10%
  Mass, wet, root: 9.81 g/100 plantlings
  Mass, wet, root, + % to control: 21%
  Mass, wet, sprout: 7.94 g/100 plantlings
  Mass, wet, sprout, + % to control: 27%
[2]; [14]
  Length, root: 5.6 cm
  Length, sprout: 4.8 cm
  Length, sprout, + % to control: 37%
  Mass, dry, root: 1.53 g/100 plantlings
  Mass, dry, root, + % to control: 28.5%
  Mass, dry, sprout: 1.17 g/100 plantlings
  Mass, dry, sprout, + % to control: 18%
  Mass, wet, root: 10.67 g/100 plantlings
  Mass, wet, root, + % to control: 31%
  Mass, wet, sprout: 8.82 g/100 plantlings
  Mass, wet, sprout, + % to control: 41%
[2]; [15]
  Length, root: 5.3 cm
  Length, root, + % to control: 10%
  Length, sprout: 4.7 cm
  Length, sprout, + % to control: 34%
  Mass, dry, root: 1.50 g/100 plantlings
  Mass, dry, root, + % to control: 26%
  Mass, dry, sprout: 1.13 g/100 plantlings
  Mass, dry, sprout, + % to control: 14%
  Mass, wet, root: 9.58 g/100 plantlings
  Mass, wet, root, + % to control: 18%
  Mass, wet, sprout: 8.75 g/100 plantlings
  Mass, wet, sprout, + % to control: 40%
[2]; [16]
  Length, root: 5.1 cm
  Length, root, + % to control: 6%
  Length, sprout: 4.4 cm
  Length, sprout, + % to control: 26%
  Mass, dry, root: 1.35 g/100 plantlings
  Mass, dry, root, + % to control: 13%
  Mass, dry, sprout: 1.07 g/100 plantlings
  Mass, dry, sprout, + % to control: 8%
  Mass, wet, root: 9.13 g/100 plantlings
  Mass, wet, root, + % to control: 12%
  Mass, wet, sprout: 7.88 g/100 plantlings
  Mass, wet, sprout, + % to control: 26%
[2]; [17]
  Length, root: 5.0 cm
  Length, root, + % to control: 4%
  Length, sprout: 3.9 cm
  Length, sprout, + % to control: 11%
  Mass, dry, root: 1.25 g/100 plantlings
  Mass, dry, root, + % to control: 5%
  Mass, dry, sprout: 0.97 g/100 plantlings
  Mass, dry, sprout, + % to control: −2%
  Mass, wet, root: 8.61 g/100 plantlings
  Mass, wet, root, + % to control: 6%
  Mass, wet, sprout: 6.79 g/100 plantlings
  Mass, wet, sprout, + % to control: 9%
[2]; [18]
  Length, root: 4.8 cm
  Length, root, + % to control: 0%
  Length, sprout: 3.7 cm
  Length, sprout, + % to control: 6%
  Mass, dry, root: 1.21 g/100 plantlings
  Mass, dry, root, + % to control: 2%
  Mass, dry, sprout: 0.92 g/100 plantlings
  Mass, dry, sprout, + % to control: −7%
  Mass, wet, root: 8.37 g/100 plantlings
  Mass, wet, root, + % to control: 3%
  Mass, wet, sprout: 6.35 g/100 plantlings
  Mass, wet, sprout, + % to control: 2%
[2]; corn, 1·10^−8% solution
  Length, root, + % to control: 16%
  Length, sprout, + % to control: 37%
  Mass, dry, root, + % to control: 28.5%
  Mass, dry, sprout, + % to control: 18%
  Mass, wet, root, + % to control: 31%
  Mass, wet, sprout, + % to control: 41%
[3]; [19]
  Germination energy, %: 88.0%
  Germination rate, %: 96.0%
[3]; 1·10^−6% solution
  Germination energy: 81.7%
  Germination rate: 88.3%
[3]; 1·10^−7% solution
  Germination energy: 84.3%
  Germination rate: 90.0%
[3]; 1·10^−8% solution
  Germination energy: 85.7%
  Germination rate: 92.0%
[3]; 1·10^−9% solution
  Germination energy: 87.7%
  Germination rate: 94.0%
[3]; 1·10^−10% solution
  Germination energy: 84.7%
  Germination rate: 96.7%
[3]; 1·10^−10% solution, listed as Cu
  Germination energy: 88.7%
[3]; 1·10^−11% solution
  Germination energy: 85.7%
  Germination rate: 94.3%
[3]; 1·10^−12% solution
  Germination energy: 82.0%
  Germination rate: 87.7%
[3]; [20]
  Germination energy: 88.0%
  Germination rate: 96.0%
